Results taken from PubChem BioAssay AID179 (DTP/NCI, 2004).
Active and inactive are the calls of the source.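 How the source made its calls: active means compounds giving half or more protection of infected cells from virus-caused growth loss, again on retest; inactive means the rest.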

Tested on: CEM cells HIV-1 protection, formazan growth assay
Assay: NCI AIDS Antiviral Assay
Conditions: for IC50: measured here: growth of uninfected CEM cells
Method in brief: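 Category rules: moderately active means at least 50% protection on retest, and confirmed active means 100% protection reproducibly. The underlying data came from a formazan growth assay in HIV-1-infected CEM cells.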

| SMILES | outcome | EC50 [µM] | IC50 [µM] |
| --- | --- | --- | --- |
| COC1CC(Br)(C#N)C1 (configuration not stated) | inactive |  |  |
| O=C(NN1C(=O)C(Cl)C1c1cccc([N+](=O)[O-])c1)c1ccccc1O (configuration not stated) |  | > 27.5 | > 27.5 |
| CC(C)Oc1c(O)c2c3c(oc(=O)n3C=CC2c2ccccc2)c1OC(C)C (configuration not stated) |  | > 200 | 21.9 |
| COc1ccc(OC)c2c1-c1nnnn1CCC2(C)C |  | 132 | > 200 |
| CCCCC(C)CCCC1=C(O)/C(=C/C(=O)O)OC1=O (configuration not stated) |  | 174 | 447 |
| C[C@]12CNC(=O)C=C1CC[C@@H]1C2CC[C@]2(C)NC(=O)CCC12 (some centres not stated) | inactive |  |  |
| COC(=O)[C@@H]1CCCCC[C@H]2C(CO)=C(C)C(=O)C12 (some centres not stated) |  | > 200 | > 200 |
| COc1ccc(C2=Nc3ccccc3SC(c3ccc(OC)cc3)C2)cc1 (configuration not stated) |  | > 47.9 | 25.7 |
| CN(C(=O)C12C3C4C1(C(=O)O)C1C2C3(C(=O)O)C41C(=O)N(C)C(C)(C)C)C(C)(C)C (configuration not stated) |  | > 17.4 | > 17.4 |
| c1ccc(-c2cn3nc(N4CCOCC4)sc3n2)cc1 |  | > 200 | > 200 |
| COc1ccccc1/C=C(\NC(=O)c1ccccc1)c1nc2ccccc2[nH]1 |  | > 97.7 | 47.9 |
| FC(F)(F)c1cccc(N2NC(=S)N3C=CC=CC32)c1 (configuration not stated) |  | > 83.2 | > 83.2 |
| COc1cc(C)cc2c(-c3c(OC(C)=O)cc(OC(C)=O)c4c3C[C@H](C)N(C(C)=O)[C@H]4C)cc(-c3cc(-c4c(OC(C)=O)cc(OC(C)=O)c5c4C[C@H](C)N(C(C)=O)[C@H]5C)c4cc(C)cc(OC)c4c3O)c(O)c12 |  | > 200 | 40.7 |
| COc1ccc(Nc2ccc3ccccc3c2-c2c(O)ccc3ccccc23)cc1 |  | > 200 | 10.5 |
| O=C(OCCc1ccccc1)c1cc2cc(O)c(O)cc2cn1 |  | > 8.32 | > 8.32 |
| O=C(O)COc1ccc(Cl)cc1Cc1cc(Cl)ccc1OCC(=O)O |  | > 200 | 89.1 |
| COc1ccc(/C=C2\C(=O)N(C)C(=O)c3cc(OC)c(OC)cc32)cc1OC |  | > 100 | 51.3 |
| COC(=O)C1=CC2OC1(C)CCC2=O (configuration not stated) | inactive |  |  |
| COC(=O)/C(C#N)=C(/NCCN)Nc1ccccc1 |  | > 200 | > 200 |
| CC(NS(=O)(=O)c1ccc([N+](=O)[O-])cc1)C(=O)O (configuration not stated) | inactive |  |  |
| C=C1c2[nH]c3ccccc3c2CC(C(=O)O)N1C(O)c1ccc(S(=O)(=O)O)cc1 (configuration not stated) | inactive |  |  |
| Cc1cc(O)c(/C=N/C(=S)NCc2ccccc2)c(=O)o1 |  | > 200 | > 200 |

| SMILES | outcome | EC50 [µM] | IC50 [µM] |
| --- | --- | --- | --- |
| CSc1ccc(C2OC(=O)c3c2ccc2ccccc32)c(C)c1 (configuration not stated) |  | > 16.2 | > 16.2 |
| CCOC(=O)C1=C(Nc2ccc(Cl)c(Cl)c2)OC/C1=N\NS(=O)(=O)c1ccc(C)cc1 |  | > 74.1 | 64.6 |
| COc1ccc(N=N/C(=N\NC(=O)c2cc(Br)ccc2O)c2ccc(N(CCC#N)CCC#N)cc2OC)cc1 |  | > 100 | 18.2 |
| COP(=N[Si](C)(C)C)(OC)OC |  | > 200 | > 200 |
| CC(=O)C(CN1C(=O)c2ccccc2C1=O)C(C)=O |  | > 38.9 | > 38.9 |
| OCCN1CCN(CCCN2c3ccccc3Sc3ccc(Cl)cc32)CC1 |  | > 200 | 10 |
| CC1=Nc2nnnn2N=C(C)C1 |  | > 234 | > 234 |
| O=C(OCCN1CCCC12CCCCC2)C(c1ccccc1)C1CCCC1 (configuration not stated) |  | > 200 | 7.76 |
| Cc1ccc(SC[C@@]2(C(F)F)NC(=O)NC2=O)cc1 |  | > 200 | > 200 |
| C=C1C(=O)OC2CC1(C)OCC2[C@H]1CCC2C3CC=C4CC=CC(=O)[C@]4(C)C3CC[C@@]21C (some centres not stated) |  | > 155 | 3.31 |
| COc1ccc(C(=O)C(CC2C(=O)NC(=O)NC2=O)c2ccc(OC)cc2)cc1 (configuration not stated) |  | > 34.7 | > 34.7 |
| CCCCC(=O)c1c(O)nc2sccn2c1=O |  | > 200 | 155 |
| CCOC(=O)c1[nH]n(-c2ccccc2)c(=O)c1/C=N/C(N)=S |  | > 200 | > 200 |
| CC(O)C1OC(n2cnc3c(=O)[nH]cnc32)C(O)C1O (configuration not stated) |  | > 891 | > 891 |
| O=C(O)C(Cc1ccc(O)cn1)NC(=O)C(F)(F)F (configuration not stated) |  | > 200 | > 200 |
| O=C(NNc1nc(-c2ccccc2)cs1)C(F)(F)F |  | > 200 | 44.7 |
| O=C1CCC(=O)c2cc(Br)ccc2N1 |  | > 141 | > 141 |
| COc1ccc(C2=NOP(c3ccccc3)(c3ccccc3)(c3ccccc3)C2)cc1 |  | > 105 | 0.661 |
| Nc1nc(N)c(-c2ccccc2)c(C(=O)Nc2nccs2)n1 |  | > 22.9 | > 22.9 |
| O=C(N/N=C/c1ccc(O)c(S(=O)(=O)O)c1)C(=O)N/N=C/c1ccc(O)c(S(=O)(=O)O)c1 |  | > 100 | > 100 |
| CCOC(=O)Cc1nc2ccc3c(c2[nH]c1=O)C(=O)c1ccccc1C3=O |  | > 14.5 | > 14.5 |
| Cc1cc(=O)n2c(nc3cc([N+](=O)[O-])ccc32)s1 |  | > 200 | 186 |

| SMILES | outcome | EC50 [µM] | IC50 [µM] |
| --- | --- | --- | --- |
| Cc1ccc(S(=O)(=O)n2cc(/C=C/C#N)c(-c3cn(S(=O)(=O)c4ccc(C)cc4)cc3-c3cn(S(=O)(=O)c4ccc(C)cc4)cc3/C=C/C#N)c2)cc1 |  | > 200 | > 200 |
| O=c1c2c([nH]c3c1ccc1[nH]c4c(c(=O)c13)CCCC4)CCCC2 |  | > 42.7 | > 42.7 |
| CC1=C(C(N)=O)C(c2ccncc2)C(C#N)C(=O)N1 (configuration not stated) |  | > 200 | 145 |
| Nc1cnn(C2OC(CO)C(F)C2F)c(=O)n1 (configuration not stated) |  | > 363 | > 363 |
| CC1C(=O)N2C(=O)C(C)C(C)C(=O)N2C(=O)C1C (configuration not stated) |  | > 53.7 | > 53.7 |
| CCOC(=O)c1c(NC(=O)c2ccccc2)sc2c(=O)oc(-c3ccccc3)nc12 |  | > 24 | > 24 |
| CNC(=O)CCCC=C(c1cc(Cl)c(OC)c(C(=O)NC)c1)c1cc(Cl)c(OC)c(C(=O)NC)c1 |  | > 200 | 38.9 |
| CSC(SC)=C1C(=O)NN=C1C |  | > 200 | > 200 |
| Cc1cn(C2CC(ON)C(CO)O2)c(=O)[nH]c1=O (configuration not stated) |  | > 200 | > 200 |
| Nc1nc2c(ncn2C2C=CC(CO)C2)c(=O)[nH]1 (configuration not stated) |  | 36.3 | 324 |
| COc1ccc(N2C=Nn3c(nc4sc(C)c(C)c4c3=O)C2)cc1 | inactive |  |  |
| NC(=S)NNC(=O)CCC(=O)Nc1ccc(Cl)cc1Cl |  | > 107 | > 107 |
| O=C1CN(Cc2cccc(Cl)c2)CC(=O)N2Cc3ccccc3CN12 | inactive |  |  |
| CCN(CC)CCN1C(=O)c2cccc3cc(OC)cc(c23)C1=O |  | > 200 | 3.47 |
| COc1ccc(C[C@H]2COC(=O)[C@@H]2Cc2ccc(Br)cc2)cc1OC |  | > 200 | 24.5 |
| CC1=C(C(=O)Nc2cc(F)c(F)cc2F)C(c2ccc3c(c2)OCO3)C(C(=O)Nc2cc(F)c(F)cc2F)=C(C)N1 |  | > 61.7 | 46.8 |
| CSc1cnc2ccccc2c1Sc1c[nH]c2ccccc2c1=O |  | > 14.8 | 13.2 |
| OCC(CO)CC1COc2ccccc2O1 (configuration not stated) | inactive |  |  |
| CC(=O)O[C@H]1CCC2[C@@H]3CCC4C(=O)c5oncc5C[C@]4(C)C3CC[C@@]21C (some centres not stated) | inactive |  |  |
| COc1ccc(/C=C/C(=O)NCC(NC(=O)/C=C/c2ccc(OC)c(OC)c2)C(=O)O)cc1OC (configuration not stated) |  | > 200 | > 200 |
| C/C=C/C=C\C=C/C(O)CC(OP(=O)(O)O)C(C)(O)/C=C/C1CC=CC(=O)O1 (configuration not stated) |  | > 575 | 33.1 |
| O=C(O)C12C(=O)NC(=O)C1(C(=O)O)C21CCCCC1 (configuration not stated) |  | > 933 | > 933 |

| SMILES | outcome | EC50 [µM] | IC50 [µM] |
| --- | --- | --- | --- |
| COc1ccc(NC2CC(C)N(C(=O)c3ccccc3)O2)cc1 (configuration not stated) |  | > 200 | 95.5 |
| O=C(c1c(O)cc(O)cc1O)C1Cc2ccccc21 (configuration not stated) | inactive |  |  |
| COC(=O)NC(Cc1ccccc1)NC(=O)OC(C)(C)C (configuration not stated) |  | > 200 | > 200 |
| O=C1c2c(O)cc(O)cc2O[C@H](c2ccc(O)cc2)[C@H]1[C@@H]1C(=O)c2c(O)cc(O)cc2O[C@H]1c1ccc(O)cc1 |  | > 200 | 8.51 |
| Cn1c2c(c(=O)n(C)c1=O)CS(=O)c1ccccc1N2 (configuration not stated) |  | > 309 | 234 |
| C1CCOC2(CCC3(CC2)OCCCCO3)OC1 | inactive |  |  |
| CP1(=S)CCC2=C1c1ccc(O)cc1CC2 (configuration not stated) | inactive |  |  |
| COC(=O)C(Cc1nc2ccccc2[nH]c1=O)C(NO)C(=O)Nc1c(Cl)cc([N+](=O)[O-])cc1Cl (configuration not stated) |  | > 51.3 | > 51.3 |
| Sc1cc2c(c3ccccc13)Nc1ccccc1S2 |  | > 200 | 123 |
| Cc1cn([C@H]2C[C@H](N=[N+]=[N-])[C@@H](COC(=O)CCC(=O)OC3CN(Cc4ccccc4)C(=O)N(Cc4ccccc4)C3)O2)c(=O)[nH]c1=O |  | 0.955 | 89.1 |
| Cc1nc2ccc(F)cc2c2c1CCN2c1ccc(Cl)cc1 |  | > 100 | 5.75 |
| O=C(CC(=O)c1ccccc1O)c1ccccc1 |  | > 30.2 | > 30.2 |
| COC(=O)c1cc(C(=CCC(=O)N[C@@H]2CC[C@@]3(C)[C@@H](CC[C@@H]4[C@@H]3CC[C@]3(C)[C@@H]([C@H](C)CCCC(C)C)CC[C@@H]43)C2)c2cc(Cl)c(OC)c(C(=O)OC)c2)cc(Cl)c1OC |  | > 200 | > 200 |
| ClCCc1ccccc1CC1=NCCc2ccccc21 |  | > 200 | 36.3 |
| CN(C)c1ccc(C(=C(c2ccc(N(C)C)cc2)c2ccc(N(C)C)cc2)c2ccc(N(C)C)cc2)cc1 |  | > 24.5 | 1 |
| CN1C(=O)CN2C(Cl)(Cl)C2(c2ccccc2F)c2cc([N+](=O)[O-])ccc21 (configuration not stated) |  | > 200 | 141 |
| COC(=O)c1c(C)c2c(c(C)c1O)OC(=O)c1c(C)cc(O)c(C=O)c1O2 |  | 186 | > 200 |
| N#Cc1c(N2CCCC2)[nH]c(=O)[nH]c1=S |  | > 200 | > 200 |
| O=c1[nH]c2ccc(C(F)(F)F)cc2nc1-c1ccccc1 |  | > 200 | > 200 |
| CN(C)C1=c2c(=O)n(C)c(=O)n(C)c2=NC2C=CC=CN12 (configuration not stated) |  | > 174 | > 174 |
| CCCc1cc(=O)oc2c3c(cc(OC(C)C)c12)O[C@@H](C)[C@H](C)[C@H]3O |  | > 200 | 11.7 |
